In ChEMBL document CHEMBL1921763, “Synthesis and SAR of 2-phenoxypyridines as novel c-Jun N-terminal kinase inhibitors” (Bioorg Med Chem Lett, 2011):

Experiments:
[1] = target: Mitogen-activated protein kinase 10 (Homo sapiens, UniProt P53779); assay: Inhibition of JNK3 using biotinylated-ATF2 as substrate by HTRF assay
[2] = target: Mitogen-activated protein kinase 8 (Homo sapiens, UniProt P45983); assay: Inhibition of JNK1 using biotinylated-ATF2 as substrate by HTRF assay
[3] = Plasma concentration in C57B16 mouse at 10 mg/kg, ip after 2 hrs; type: ADME, organism-based; design: dose 10 mg/kg, route intraperitoneal
[4] = Oral bioavailability in Sprague-Dawley rat at 2 mg/kg; type: ADME, organism-based; details: in vivo
[5] = Half life in Sprague-Dawley rat at 1 mg/kg, iv and 2 mg/kg, po; type: ADME, organism-based; details: in vivo
[6] = AUC in Sprague-Dawley rat at 1 mg/kg, iv and 2 mg/kg, po; type: ADME, organism-based; details: plasma
[7] = Drug level in C57B16 mouse brain at 10 mg/kg, ip after 2 hrs; type: ADME, organism-based; design: dose 10 mg/kg, route intraperitoneal; details: read-out: Drug uptake
[8] = Plasma clearance in Sprague-Dawley rat at 1 mg/kg, iv and 2 mg/kg, po; type: ADME, organism-based

Sequence of Mitogen-activated protein kinase 8 (P45983 whole entry): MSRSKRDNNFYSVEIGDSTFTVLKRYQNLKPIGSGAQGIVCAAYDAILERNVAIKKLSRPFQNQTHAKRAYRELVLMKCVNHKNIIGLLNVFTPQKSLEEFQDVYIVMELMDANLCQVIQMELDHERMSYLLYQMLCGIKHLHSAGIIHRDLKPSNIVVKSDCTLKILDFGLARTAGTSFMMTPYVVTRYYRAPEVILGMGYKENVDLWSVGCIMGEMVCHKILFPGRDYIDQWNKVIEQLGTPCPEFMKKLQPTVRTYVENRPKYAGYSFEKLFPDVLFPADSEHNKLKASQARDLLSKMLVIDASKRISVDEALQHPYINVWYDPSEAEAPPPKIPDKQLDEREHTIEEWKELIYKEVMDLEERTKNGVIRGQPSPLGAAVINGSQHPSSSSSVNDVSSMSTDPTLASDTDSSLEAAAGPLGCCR
Sequence of Mitogen-activated protein kinase 10 (P53779 whole entry): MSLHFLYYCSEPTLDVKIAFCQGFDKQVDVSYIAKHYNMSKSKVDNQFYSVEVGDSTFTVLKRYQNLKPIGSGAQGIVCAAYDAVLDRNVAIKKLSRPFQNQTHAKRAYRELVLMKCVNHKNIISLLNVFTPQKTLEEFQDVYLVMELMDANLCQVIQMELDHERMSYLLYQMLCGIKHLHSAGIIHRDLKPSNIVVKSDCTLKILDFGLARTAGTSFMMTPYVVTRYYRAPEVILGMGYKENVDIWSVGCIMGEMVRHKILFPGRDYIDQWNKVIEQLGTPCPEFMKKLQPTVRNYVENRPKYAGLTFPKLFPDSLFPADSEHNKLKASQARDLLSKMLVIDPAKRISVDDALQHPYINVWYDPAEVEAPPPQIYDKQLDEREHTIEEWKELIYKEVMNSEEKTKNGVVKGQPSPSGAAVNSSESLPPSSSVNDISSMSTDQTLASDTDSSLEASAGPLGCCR

Row | Structure (SMILES) | IC50 [1] [µM] | IC50 [2] [µM] | further results
1 | NC(=O)c1ccccc1Nc1cc(Oc2ccc(N3CCNCC3)cc2)ncc1C(F)(F)F | 0.034 | – | –
2 | COc1ccc(Oc2cc(Nc3cc(F)ccc3C(N)=O)c(C(F)(F)F)cn2)cc1 | 0.049 | – | –
3 | NC(=O)c1ccccc1Nc1cc(Oc2ccc(-c3cccnc3)cc2)ncc1C(F)(F)F | 0.072 | 0.053 | –
4 | NC(=O)c1ccccc1Nc1cc(Oc2ccc(OC(F)(F)F)cc2)ncc1C(F)(F)F | 0.035 | 0.035 | –
5 | COc1ccc(Oc2cc(N(C)c3ccccc3C(N)=O)c(Cl)cn2)cc1 | – | > 20 | –
6 | COc1ccc(Oc2cc(Nc3cc(OC)ccc3C(N)=O)c(C(F)(F)F)cn2)cc1 | 0.017 | – | –
7 | COc1ccc(Oc2cc(Nc3ccc(F)cc3C(N)=O)c(C(F)(F)F)cn2)cc1 | 0.045 | – | –
8 | COc1ccc(Oc2cc(Nc3ccccc3C(N)=O)c(C(F)(F)F)cn2)cc1 | 0.037 | 0.027 | concentration at 2 h [3]: 10 µM; bioavailability [4]: 79%; half-life [5]: 1 h; AUC [6]: 20.1 µM·h; concentration at 2 h [7]: 5.2 µM; clearance [8]: 3 mL/min/kg
9 | NC(=O)c1ccccc1Nc1cc(Oc2cccc(Cl)c2)ncc1C(F)(F)F | 0.2 | – | –
10 | CC(C)(C)Oc1ccc(Oc2cc(Nc3ccccc3C(N)=O)c(C(F)(F)F)cn2)cc1 | 0.027 | 0.022 | –
11 | COc1ccc(Oc2cc(Nc3cccc(OC)c3C(N)=O)c(C(F)(F)F)cn2)cc1 | 2.2 | – | –
12 | COc1ccc(Oc2cc(Nc3ccccc3C(N)=O)c(Cl)cn2)cc1 | 0.015 | 0.008 | concentration at 2 h [3]: 2.4 µM; bioavailability [4]: 90%; half-life [5]: 1 h; AUC [6]: 6.3 µM·h; concentration at 2 h [7]: 1.8 µM; clearance [8]: 13 mL/min/kg
13 | NC(=O)c1ccccc1Nc1cc(Oc2ccc(F)cc2)ncc1C(F)(F)F | 0.2 | 0.1 | –
14 | COc1ccc(Oc2cc(Nc3cc(Cl)ccc3C(N)=O)c(C(F)(F)F)cn2)cc1 | 0.078 | – | –
15 | NC(=O)c1ccccc1Nc1ccnc(Oc2ccccc2)c1 | 0.52 | 0.33 | –
16 | COc1ccc(Oc2cc(Nc3c(F)cccc3C(N)=O)c(C(F)(F)F)cn2)cc1 | 0.06 | – | –
17 | COc1cccc(Oc2cc(Nc3ccccc3C(N)=O)c(C(F)(F)F)cn2)c1 | 0.07 | 0.038 | –
18 | NC(=O)c1ccccc1Nc1cc(Oc2ccc(Br)cc2)ncc1C(F)(F)F | 0.38 | 0.48 | –

Row | Structure (SMILES) | IC50 [1] [µM] | IC50 [2] [µM] | further results
19 | NC(=O)c1ccccc1Nc1ccnc(Oc2ccc(N3CCNCC3)cc2)c1 | 0.07 | 0.31 | bioavailability [4]: 14%; half-life [5]: 1.5 h; AUC [6]: 0.3 µM·h; clearance [8]: 38 mL/min/kg
20 | COc1ccc(Oc2cc(Nc3c(Cl)cccc3C(N)=O)c(C(F)(F)F)cn2)cc1 | 0.16 | – | –
21 | CCCOc1ccc(Oc2cc(Nc3ccccc3C(N)=O)c(C(F)(F)F)cn2)cc1 | 0.14 | 0.1 | –
22 | NC(=O)c1ccccc1Nc1cc(Oc2ccc3c(c2)OCO3)ncc1C(F)(F)F | 0.048 | 0.044 | –
23 | NC(=O)c1ccccc1Nc1cc(Oc2ccc(Cl)c(Cl)c2)ncc1C(F)(F)F | 0.1 | 0.68 | –
24 | COc1ccc(Oc2cc(Nc3ccc(Cl)cc3C(N)=O)c(C(F)(F)F)cn2)cc1 | 0.03 | – | –
25 | CCOc1ccc(Oc2cc(Nc3ccccc3C(N)=O)c(C(F)(F)F)cn2)cc1 | 0.11 | 0.035 | –
26 | NC(=O)c1ccccc1Nc1cc(Oc2cccc3ccccc23)ncc1C(F)(F)F | 0.99 | 0.65 | –
27 | COc1ccc(Oc2cc(Nc3ccccc3-c3nnc[nH]3)c(Cl)cn2)cc1 | 0.14 | 0.12 | –
28 | COc1ccc(Oc2ncc(Cl)c(Nc3ccccc3C(N)=O)n2)cc1 | 0.007 | 0.004 | bioavailability [4]: 25%; half-life [5]: 0.5 h; AUC [6]: 1 µM·h; clearance [8]: 22 mL/min/kg
29 | NC(=O)c1ccccc1Nc1cc(Oc2ccc(-n3cncn3)cc2)ncc1C(F)(F)F | 0.08 | – | concentration at 2 h [3]: 15.7 µM; bioavailability [4]: 73%; half-life [5]: 1 h; AUC [6]: 9.1 µM·h; concentration at 2 h [7]: 2.5 µM; clearance [8]: 6 mL/min/kg
30 | COc1ccccc1Oc1cc(Nc2ccccc2C(N)=O)c(C(F)(F)F)cn1 | 3.5 | 3.2 | –
31 | NC(=O)c1ccccc1Nc1cc(Oc2ccc3ccccc3c2)ncc1C(F)(F)F | 0.32 | – | –
32 | COc1ccc(Oc2cc(Nc3ccccc3C(N)=O)c(C(F)(F)F)cn2)c(Cl)c1 | 0.1 | 0.74 | –
33 | COc1ccc(Oc2cc(Nc3cccc(Cl)c3C(N)=O)c(C(F)(F)F)cn2)cc1 | 2.2 | – | –
34 | COc1ccc(Oc2cc(Nc3ccccc3C(N)=O)c(F)cn2)cc1 | 0.048 | 0.026 | –
35 | CNC(=O)c1ccccc1Nc1cc(Oc2ccc(OC)cc2)ncc1Cl | 0.17 | 0.93 | –
